Target: T1, human PTHR1 receptor (Homo sapiens, UniProt Q03431)
T1 construct: purchased Eurofins HTS030M
T1 sequence (Q03431 27-593): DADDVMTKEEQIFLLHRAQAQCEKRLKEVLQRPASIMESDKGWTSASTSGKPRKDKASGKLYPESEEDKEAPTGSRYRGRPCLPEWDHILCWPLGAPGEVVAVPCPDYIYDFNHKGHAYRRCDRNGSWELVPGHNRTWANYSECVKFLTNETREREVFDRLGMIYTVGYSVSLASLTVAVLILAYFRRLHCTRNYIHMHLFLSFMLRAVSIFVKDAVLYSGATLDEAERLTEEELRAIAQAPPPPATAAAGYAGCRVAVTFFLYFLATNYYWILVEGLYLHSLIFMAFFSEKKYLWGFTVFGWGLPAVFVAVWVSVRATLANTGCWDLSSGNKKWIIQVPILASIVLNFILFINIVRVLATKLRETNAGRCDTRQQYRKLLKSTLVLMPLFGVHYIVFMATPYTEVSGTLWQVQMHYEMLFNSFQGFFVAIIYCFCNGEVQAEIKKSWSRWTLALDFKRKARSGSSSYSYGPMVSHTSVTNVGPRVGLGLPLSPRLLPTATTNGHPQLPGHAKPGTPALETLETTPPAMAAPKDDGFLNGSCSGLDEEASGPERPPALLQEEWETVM
Assay: Competitive antagonist binding assay for hPTH-R1 (radioactive competition binding, SPA beads)
Details: human PTHR1 membranes, [125I]-[Nle8,18,Tyr34]-PTH(1-34) 0.2 nM, 90 minutes at room temperature; read-out: hPTHR1 Ki
Summary of the method: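 Displacement of 0.2 nM radioiodinated [Nle8,18,Tyr34]-PTH(1-34) from membrane-bound human PTHR1 measured by scintillation proximity after 90 min at room temperature. Compounds typically 0-10,000 nM final, pH 7.4 HEPES/Mg/Ca buffer with BSA and detergent. Ki calculated from competition data.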

Row | SMILES | Ki
1 | CCN1C(=O)N(c2c(F)cc(NCCNCCO)cc2F)c2cc(Cl)cc(C)c2-c2cc(Cl)cnc21 [1-51, 4,13-dichloro-10-[2,6-difluoro-4-({2-[(2-hydroxyethyl)amino]ethyl}amino)phenyl]-8-ethyl-15-methyl-6,8,10-triazatricyclo[9.4.0.0^2,7]pentadeca-1(11),2(7),3,5,12,14-hexaen-9-one] | < 100 nM
2 | CCN1C(=O)N(c2c(F)cc(NCCNC[C@H](O)CO)cc2F)c2cc(C#N)ccc2-c2cc(F)cnc21 [1-200, 10-{4-[(2-{[(2S)-2,3-dihydroxypropyl]amino}ethyl)amino]-2,6-difluorophenyl}-8-ethyl-4-fluoro-9-oxo-6,8,10-triazatricyclo[9.4.0.0^2,7]pentadeca-1(11),2(7),3,5,12,14-hexaene-13-carbonitrile] | < 100 nM
3 | CCN1C(=O)N(c2c(F)cc(NCCNCCCS(=O)(=O)O)cc2F)c2cc(C#N)ccc2-c2cc(F)cnc21 [1-221, 3-({2-[(4-{13-cyano-8-ethyl-4-fluoro-9-oxo-6,8,10-triazatricyclo[9.4.0.0^2,7]pentadeca-1(11),2(7),3,5,12,14-hexaen-10-yl}-3,5-difluorophenyl)amino]ethyl}amino)propane-1-sulfonic acid] | < 100 nM
4 | CCN1C(=O)N(c2c(F)cc(NCCN[C@@H]3CC[C@@H]3O)cc2F)c2cc(C#N)ccc2-c2cc(F)cnc21 [1-204, 10-{2,6-difluoro-4-[(2-{[(1R,2S)-2-hydroxycyclobutyl]amino}ethyl)amino]phenyl}-8-ethyl-4-fluoro-9-oxo-6,8,10-triazatricyclo[9.4.0.0^2,7]pentadeca-1(11),2(7),3,5,12,14-hexaene-13-carbonitrile] | < 100 nM
5 | CNCCNc1cc(F)c(N2C(=O)N(C)c3ncc(F)cc3-c3c(F)cc(C#N)cc32)c(F)c1 [1-109, 10-(2,6-difluoro-4-{[2-(methylamino)ethyl]amino}phenyl)-4,15-difluoro-8-methyl-9-oxo-6,8,10-triazatricyclo[9.4.0.0^2,7]pentadeca-1(11),2(7),3,5,12,14-hexaene-13-carbonitrile] | < 100 nM
6 | Cc1cc(Cl)cc2c1-c1cc(F)cnc1N(C(C)C)C(=O)N2c1c(F)cc(NCCNCCCC(=O)O)cc1F [1-80, 4-{[2-({4-[13-chloro-4-fluoro-15-methyl-9-oxo-8-(propan-2-yl)-6,8,10-triazatricyclo[9.4.0.0^2,7]pentadeca-1(11),2(7),3,5,12,14-hexaen-10-yl]-3,5-difluorophenyl}amino)ethyl]amino}butanoic acid] | < 100 nM
7 | CCN1C(=O)N(c2c(F)cc(NCCNCCO)cc2F)c2cc(C#N)cc(F)c2-c2cc(F)cnc21 [1-103, 10-[2,6-difluoro-4-({2-[(2-hydroxyethyl)amino]ethyl}amino)phenyl]-8-ethyl-4,15-difluoro-9-oxo-6,8,10-triazatricyclo[9.4.0.0^2,7]pentadeca-1(11),2(7),3,5,12,14-hexaene-13-carbonitrile] | < 100 nM
8 | CCN1C(=O)N(c2c(F)cc(NCCNCCO)cc2F)c2cc(Cl)cnc2-c2cc(Cl)cnc21 [3-21, 5,14-dichloro-8-[2,6-difluoro-4-({2-[(2-hydroxyethyl)amino]ethyl}amino)phenyl]-10-ethyl-3,8,10,12-tetraazatricyclo[9.4.0.0^2,7]pentadeca-1(11),2(7),3,5,12,14-hexaen-9-one] | < 100 nM
9 | CCN1C(=O)N(c2c(F)cc(NCCNCCO)cc2F)c2cc(Cl)cc(OC)c2-c2cc(F)cnc21 [1-88, 13-chloro-10-[2,6-difluoro-4-({2-[(2-hydroxyethyl)amino]ethyl}amino)phenyl]-8-ethyl-4-fluoro-15-methoxy-6,8,10-triazatricyclo[9.4.0.0^2,7]pentadeca-1(11),2(7),3,5,12,14-hexaen-9-one] | < 100 nM
10 | CCN1C(=O)N(c2c(F)cc(NCCNC)cc2F)c2cc(Cl)ccc2-c2c1ncc(Cl)c2C [3-5, 4,13-dichloro-10-(2,6-difluoro-4-{[2-(methylamino)ethyl]amino}phenyl)-8-ethyl-3-methyl-6,8,10-triazatricyclo[9.4.0.0^2,7]pentadeca-1(11),2(7),3,5,12,14-hexaen-9-one] | < 100 nM
11 | CCN1C(=O)N(c2c(F)cc(NCCNCCOCCO)cc2F)c2cc(C#N)ccc2-c2cc(Cl)cnc21 [1-181, 4-chloro-10-{2,6-difluoro-4-[(2-{[2-(2-hydroxyethoxy)ethyl]amino}ethyl)amino]phenyl}-8-ethyl-9-oxo-6,8,10-triazatricyclo[9.4.0.0^2,7]pentadeca-1(11),2(7),3,5,12,14-hexaene-13-carbonitrile] | < 100 nM
12 | CCN1C(=O)N(c2c(F)cc(NCCNCCCC(=O)O)cc2F)c2cc(Cl)ccc2-c2cc(C)cnc21 [1-25, 4-({2-[(4-{13-chloro-8-ethyl-4-methyl-9-oxo-6,8,10-triazatricyclo[9.4.0.0^2,7]pentadeca-1(11),2(7),3,5,12,14-hexaen-10-yl}-3,5-difluorophenyl)amino]ethyl}amino)butanoic acid] | < 100 nM
13 | CC(C)N1C(=O)N(c2c(F)cc(NCCNCCCC(=O)O)cc2F)c2cc(C#N)cc(F)c2-c2cc(F)cnc21 [1-163, 4-{[2-({4-[13-cyano-4,15-difluoro-9-oxo-8-(propan-2-yl)-6,8,10-triazatricyclo[9.4.0.0^2,7]pentadeca-1(15),2(7),3,5,11,13-hexaen-10-yl]-3,5-difluorophenyl}amino)ethyl]amino}butanoic Acid] | < 100 nM
14 | CCN1C(=O)N(c2c(F)cc(NCCNC)cc2F)c2cc(Cl)ccc2-c2nc(C#N)ccc21 [3-16, 13-chloro-10-(2,6-difluoro-4-{[2-(methylamino)ethyl]amino}phenyl)-8-ethyl-9-oxo-3,8,10-triazatricyclo[9.4.0.0^2,7]pentadeca-1(11),2(7),3,5,12,14-hexaene-4-carbonitrile] | 1000 to 10000 nM
15 | CCCN1C(=O)N(c2c(F)cc(NCCNC)cc2F)c2cc(Cl)ccc2-c2cc(Cl)cnc21 [1-40, 4,13-dichloro-10-(2,6-difluoro-4-{[2-(methylamino)ethyl]amino}phenyl)-8-propyl-6,8,10-triazatricyclo[9.4.0.0^2,7]pentadeca-1(11),2(7),3,5,12,14-hexaen-9-one] | < 100 nM
16 | CCN1C(=O)N(c2c(F)cc(NCCNCCCC(=O)O)cc2F)c2cc(C#N)ccc2-c2cc(F)cnc21 [1-83, 4-({2-[(4-{13-cyano-8-ethyl-4-fluoro-9-oxo-6,8,10-triazatricyclo[9.4.0.0^2,7]pentadeca-1(11),2(7),3,5,12,14-hexaen-10-yl}-3,5-difluorophenyl)amino]ethyl}amino)butanoic acid] | < 100 nM
17 | CCN1C(=O)N(c2c(F)cc(NCCNC[C@@H](C)O)cc2F)c2cc(C#N)ccc2-c2cc(Cl)cnc21 [1-186, 4-chloro-10-{2,6-difluoro-4-[(2-{[(2R)-2-hydroxypropyl]amino}ethyl)amino]phenyl}-8-ethyl-9-oxo-6,8,10-triazatricyclo[9.4.0.0^2,7]pentadeca-1(11),2(7),3,5,12,14-hexaene-13-carbonitrile] | < 100 nM
18 | CCN1C(=O)N(c2c(F)cc(NCCNCCC#N)cc2F)c2cc(C#N)ccc2-c2cc(Cl)cnc21 [1-154, 4-chloro-10-[4-({2-[(2-cyanoethyl)amino]ethyl}amino)-2,6-difluorophenyl]-8-ethyl-9-oxo-6,8,10-triazatricyclo[9.4.0.0^2,7]pentadeca-1(11),2(7),3,5,12,14-hexaene-13-carbonitrile] | < 100 nM
19 | CCN1C(=O)N(c2c(F)cc(NCCN[C@@H]3CC[C@H]3O)cc2F)c2cc(C#N)ccc2-c2cc(C(F)(F)F)cnc21 [1-196, 10-{2,6-difluoro-4-[(2-{[(1R,2R)-2-hydroxycyclobutyl]amino}ethyl)amino]phenyl}-8-ethyl-9-oxo-4-(trifluoromethyl)-6,8,10-triazatricyclo[9.4.0.0^2,7]pentadeca-1(11),2(7),3,5,12,14-hexaene-13-carbonitrile] | < 100 nM
20 | CCN1C(=O)N(c2ncc(NCCNCCO)cc2F)c2cc(Cl)ccc2-c2cc(Cl)cnc21 [2-10, 4,13-dichloro-8-ethyl-10-[3-fluoro-5-({2-[(2-hydroxyethyl)amino]ethyl}amino)pyridin-2-yl]-6,8,10-triazatricyclo[9.4.0.0^2,7]pentadeca-1(11),2(7),3,5,12,14-hexaen-9-one] | < 100 nM
21 | CNCCNc1cc(F)c(N2C(=O)N(C(C)C)c3ncc(Cl)cc3-c3ccc(Cl)cc32)c(F)c1 [1-39, 4,13-dichloro-10-(2,6-difluoro-4-{[2-(methylamino)ethyl]amino}phenyl)-8-(propan-2-yl)-6,8,10-triazatricyclo[9.4.0.0^2,7]pentadeca-1(11),2(7),3,5,12,14-hexaen-9-one] | < 100 nM
22 | CCN1C(=O)N(c2c(F)cc(NCCNCCO)cc2F)c2cc(C#N)c(C)cc2-c2cc(F)cnc21 [3-20, 10-[2,6-difluoro-4-({2-[(2-hydroxyethyl)amino]ethyl}amino)phenyl]-8-ethyl-4-fluoro-14-methyl-9-oxo-6,8,10-triazatricyclo[9.4.0.0^2,7]pentadeca-1(11),2(7),3,5,12,14-hexaene-13-carbonitrile] | < 100 nM
